Test results published in patent US7732437B2, “Use of anti-histaminics for acute reduction of elevated intracranial pressure” (Janssen Pharmaceutica, NV., priority 2001, dated 2010).

Assays:
[1] = test system: Sprague-Dawley rats with closed head injury; assay: Closed Head Injury (CHI) model, severe head injury; conditions: for Effect on ICP / Effect on blood pressure: 0.5 mg/kg/min for 10 min, severe head injury, first 15 minutes, 6 rats; for effect on the lowering of the blood pressure: rat, in vivo
[2] = molecular target: T1, human histamine H1-receptor (Homo sapiens, UniProt P35367); assay: Radioligand binding, histamine H1-receptor, competitive inhibition of [3H]Pyrilamine; conditions: CHO-cells transfected with the human histamine H1-receptor, read-out: H1-antagonist activity (pIC50) (converted)
T1 construct: expressed in transfected cells; host or cells: CHO cells
Protocol: Competitive inhibition of [^3H] […] Incubation was done during 150 min at 22° C.

[3] = bolus of 1 mg/kg in 1 min, then infusion of 0.5 mg/kg/min for 44 min

T1 sequence (P35367 whole entry): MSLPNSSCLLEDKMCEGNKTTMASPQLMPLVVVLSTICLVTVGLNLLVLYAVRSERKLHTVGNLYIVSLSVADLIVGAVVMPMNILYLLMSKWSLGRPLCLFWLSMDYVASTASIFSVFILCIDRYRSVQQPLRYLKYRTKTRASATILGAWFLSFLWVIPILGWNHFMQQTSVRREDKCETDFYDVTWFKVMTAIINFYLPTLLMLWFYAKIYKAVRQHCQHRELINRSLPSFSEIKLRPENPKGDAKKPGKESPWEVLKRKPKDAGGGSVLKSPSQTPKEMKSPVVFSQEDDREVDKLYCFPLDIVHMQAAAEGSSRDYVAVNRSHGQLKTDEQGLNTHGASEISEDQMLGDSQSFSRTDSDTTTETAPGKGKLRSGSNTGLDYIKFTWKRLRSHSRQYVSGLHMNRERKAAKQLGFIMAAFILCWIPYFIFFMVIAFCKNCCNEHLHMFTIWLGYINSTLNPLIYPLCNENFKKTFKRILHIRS

CN1CCC(OC(c2ccccc2)c2ccccc2)CC1 [Diphenylpyraline, reference compound]
Effect on ICP [1]: −

Clc1ccc(Cn2c(CN3CCCC3)nc3ccccc32)cc1 [Clemizole, reference compound]
Effect on ICP [1]: −

COCCOCCn1c2ccccc2n2c(=O)c(CCN3CCC(C4c5ccccc5CCn5c4nc4ccccc45)CC3Cc3ccccc3)c(C)nc12 (centres unmarked) [Compound 35]
IC50 [2]: 794 nM

CC(CN(C)C)CN1c2ccccc2Sc2ccccc21 (centres unmarked) [Alimemazine, reference compound]
Effect on ICP [1]: −

Cc1nc2n(C)c3ccccc3n2c(=O)c1CCN1CCC(C2c3ccccc3CCn3c2nc2ccccc23)CC1Cc1ccccc1 (single isomer, unassigned) [Compound 46]
IC50 [2]: 126 nM

Cc1nc2ccccn2c(=O)c1CCN1CCC(C2c3ccccc3CCn3c2nc2ccccc23)CC1Cc1ccccc1 (centres unmarked) [Compound 81]
IC50 [2]: 200 nM

COCCOCn1c2ccccc2n2c(=O)c(CCN3CCC(C4c5ccccc5CCn5c4nc4ccccc45)CC3Cc3ccccc3)c(C)nc12 (centres unmarked) [Compound 29]
IC50 [2]: 501 nM

Cyclodextrine
Effect on ICP [1]: −

Cc1nc2n(C)c3ccccc3n2c(=O)c1CCN1CCC(C2c3ccccc3CCn3c2nc2ccccc23)CC1Cc1ccccc1 (single isomer, unassigned) [Compound 17]
IC50 [2]: 631 nM
Decision (sequential statistical evaluation) [1, 3]: active
Delta %: average change of the relative ICP from baseline over the treatment period [1, 3]: −8.9%

Cc1nc2sccn2c(=O)c1CCN1CCC(=C(c2ccc(F)cc2)c2ccc(F)cc2)CC1 [Ritanserine, reference compound]
Effect on blood pressure [1]: −

CN1CCN(C(c2ccccc2)c2ccc(Cl)cc2)CC1 (centres unmarked) [Chlorcyclizine, reference compound]
Effect on ICP [1]: −
Effect on blood pressure [1]: 0
effect on the lowering of the blood pressure [1]: no or little effect

Cc1nc2ccccn2c(=O)c1CCN1CCC(C2c3ccccc3CCn3c2nc2ccccc23)C(C)C1 (single isomer, unassigned) [Compound 94]
IC50 [2]: 100 nM

Cc1nc2n(C)c3ccccc3n2c(=O)c1CCN1CCC(C2c3ccccc3CCn3c2nc2ccccc23)CC1Cc1ccccc1 (centres unmarked) [Compound 50]
IC50 [2]: 251 nM

Cc1nc2sccn2c(=O)c1CCN1CCC(C2c3ccccc3CCn3c2nc2ccccc23)C(C)C1 (centres unmarked) [Compound 87]
IC50 [2]: 251 nM

CCn1c2ccccc2n2c(=O)c(CCN3CCC(C4c5ccccc5CCn5c4nc4ccccc45)CC3Cc3ccccc3)c(C)nc12 (centres unmarked) [Compound 12]
IC50 [2]: 316 nM

O=c1[nH]c2ccccc2n1CCCN1CCN(C(c2ccccc2)c2ccccc2)CC1 [Oxatomide, reference compound]
Effect on ICP [1]: −
Effect on blood pressure [1]: −

Cc1nc2n(C)c3ccccc3n2c(=O)c1CCN1CCC(C2c3ccccc3CCn3c2nc2ccccc23)CC1Cc1ccccc1 (centres unmarked) [Compound 55]
IC50 [2]: 251 nM

CCOCCn1c2ccccc2n2c(=O)c(CCN3CCC(C4c5ccccc5CCn5c4nc4ccccc45)CC3Cc3ccccc3)c(C)nc12 (centres unmarked) [Compound 23]
IC50 [2]: 200 nM

Cc1nc2n(Cc3ccccn3)c3ccccc3n2c(=O)c1CCN1CCC(C2c3ccccc3CCn3c2nc2ccccc23)CC1Cc1ccccc1 (centres unmarked) [Compound 20]
IC50 [2]: 398 nM

Cc1nc2n(C)c3ccccc3n2c(=O)c1CCN1CCC(C2c3ccccc3CCn3c2nc2ccccc23)CC1Cc1ccccc1 (single isomer, unassigned) [Compound 44]
Decision (sequential statistical evaluation) [1, 3]: active
Delta %: average change of the relative ICP from baseline over the treatment period [1, 3]: −14.8%

Cc1nc2sccn2c(=O)c1CCN1CCC(C2(C)c3ccccc3CCn3c2nc2ccccc23)CC1 (centres unmarked) [Compound 110]
IC50 [2]: 126 nM

Cc1nc2n(C)c3ccccc3n2c(=O)c1CCN1CCC(C2c3ccccc3CCn3c2nc2ccccc23)CC1Cc1ccccc1 (racemic) [Compound 15]
IC50 [2]: 316 nM
Decision (sequential statistical evaluation) [1, 3]: active
Delta %: average change of the relative ICP from baseline over the treatment period [1, 3]: −23.3%

CCOC(=O)N1CCC(=C2c3ccc(Cl)cc3CCc3cccnc32)CC1 [Loratidine, reference compound]
Effect on ICP [1]: −

Cc1nc2n(CCOCCO)c3ccccc3n2c(=O)c1CCN1CCC(C2c3ccccc3CCn3c2nc2ccccc23)CC1Cc1ccccc1 (centres unmarked) [Compound 37]
IC50 [2]: 631 nM

CN1CCC(=C2c3ccccc3CC(=O)c3sccc32)CC1 [Ketotifen, reference compound]
Effect on blood pressure [1]: 0
effect on the lowering of the blood pressure [1]: no or little effect

CCOC(=O)Cn1c2ccccc2n2c(=O)c(CCN3CCC(C4c5ccccc5CCn5c4nc4ccccc45)CC3Cc3ccccc3)c(C)nc12 (centres unmarked) [Compound 32]
IC50 [2]: 398 nM
Decision (sequential statistical evaluation) [1, 3]: active
Delta %: average change of the relative ICP from baseline over the treatment period [1, 3]: −13.9%

Cc1nc2n(C)c3ccccc3n2c(=O)c1CCN1CCC(C2c3ccccc3CCn3c2nc2ccccc23)CC1Cc1ccccc1 (single isomer, unassigned) [Compound 57]
IC50 [2]: 398 nM

Cc1nc2n(C)c3ccccc3n2c(=O)c1CCN1CCC(C2c3ccccc3CCn3c2nc2ccccc23)CC1Cc1ccccc1 (centres unmarked) [Compound 49]
IC50 [2]: 316 nM

Cc1nc2n(C)c3ccccc3n2c(=O)c1CCN1CCC(C2c3ccccc3CCn3c2nc2ccccc23)CC1 (centres unmarked) [Compound 14]
IC50 [2]: 25.1 nM

CN(C)CCC(c1ccc(Br)cc1)c1ccccn1 (centres unmarked) [Brompheniramine, reference compound]
Effect on ICP [1]: −

CN1CCC[C@@H]1CCO[C@](C)(c1ccccc1)c1ccc(Cl)cc1 [Clemastine, reference compound]
Effect on ICP [1]: −

Cc1nc2sccn2c(=O)c1CCN1CCC(C)(C2c3ccccc3CCn3c2nc2ccccc23)CC1 (centres unmarked) [Compound 104]
IC50 [2]: 100 nM

Cc1nc2n(C)c3ccccc3n2c(=O)c1CCN1CCC(C2c3ccccc3CCn3c2nc2ccccc23)CC1Cc1ccccc1 (centres unmarked) [Compound 30]
IC50 [2]: 794 nM
Decision (sequential statistical evaluation) [1, 3]: active
Delta %: average change of the relative ICP from baseline over the treatment period [1, 3]: −9.3%

OC[C@@H](O)[C@@H](O)[C@H](O)[C@H](O)CO [Mannitol, mannitol, reference compound]
mean reduction of ICP ([1]; i.v. mannitol 3 g over 45 min): about 20%
effect of repeated infusion on ICP ([1]; mannitol i.v. 0.125 g/kg/min, same time windows): lowering of ICP
Decision (sequential statistical evaluation) ([1]; mannitol infusion of 67 mg/kg/min for 45 min, 5 separate tests): active
Delta %: average change of the relative ICP from baseline over the treatment period ([1]; mannitol infusion of 67 mg/kg/min for 45 min, 5 separate tests, listed as Mannitol^1, 67 mg/kg): −21.7%
Delta %: average change of the relative ICP from baseline over the treatment period ([1]; mannitol infusion of 67 mg/kg/min for 45 min, 5 separate tests, listed as Mannitol^2, 67 mg/kg): −22.1%
Delta %: average change of the relative ICP from baseline over the treatment period ([1]; mannitol infusion of 67 mg/kg/min for 45 min, 5 separate tests, listed as Mannitol^3, 67 mg/kg): −13.0%
Delta %: average change of the relative ICP from baseline over the treatment period ([1]; mannitol infusion of 67 mg/kg/min for 45 min, 5 separate tests, listed as Mannitol^4, 67 mg/kg): −19.3%
Delta %: average change of the relative ICP from baseline over the treatment period ([1]; mannitol infusion of 67 mg/kg/min for 45 min, 5 separate tests, listed as Mannitol^5, 67 mg/kg): −19.9%

Cc1nc2n(C)c3ccccc3n2c(=O)c1CCN1CCC(C2c3ccccc3CCn3c2nc2ccccc23)CC1Cc1ccccc1 (centres unmarked) [Compound 48]
IC50 [2]: 316 nM

Cc1nc2n(C)c3ccccc3n2c(=O)c1CCN1CCC(C2c3ccccc3CCn3c2nc2ccccc23)CC1Cc1ccccc1 (single isomer, unassigned) [Compound 58]
IC50 [2]: 398 nM

Cc1cncc(Cn2c3ccccc3n3c(=O)c(CCN4CCC(C5c6ccccc6CCn6c5nc5ccccc56)CC4Cc4ccccc4)c(C)nc23)n1 (centres unmarked) [Compound 27]
IC50 [2]: 631 nM

CC(C1=C(CCN(C)C)Cc2ccccc21)c1ccccn1 (centres unmarked) [Dimethindene, reference compound]
Effect on ICP [1]: −

CCOC(=O)Cn1c2ccccc2n2c(=O)c(CCN3CCC(C4c5ccccc5CCn5c4nc4ccccc45)CC3Cc3ccccc3)c(C)nc12 (centres unmarked) [Compound 54]
IC50 [2]: 316 nM

Cc1nc2n(C)c3ccccc3n2c(=O)c1CCN1CCC(C2c3ccccc3CCn3c2nc2ccccc23)CC1Cc1ccccc1 (centres unmarked) [Compound 13]
IC50 [2]: 316 nM

Cc1nc2n(C)c3ccccc3n2c(=O)c1CCN1CCC(C2c3ccccc3CCn3c2nc2ccccc23)CC1Cc1ccccc1 (single isomer, unassigned) [Compound 47]
IC50 [2]: 398 nM
Decision (sequential statistical evaluation) [1, 3]: active
Delta %: average change of the relative ICP from baseline over the treatment period [1, 3]: −12.0%

CCOC(=O)Cn1c2ccccc2n2c(=O)c(CCN3CCC(C4c5ccccc5CCn5c4nc4ccccc45)CC3Cc3ccccc3)c(C)nc12 (centres unmarked) [Compound 53]
IC50 [2]: 316 nM

Cc1nc2ccccn2c(=O)c1CCN1CCC(C2c3ccccc3CCn3c2nc2ccccc23)C(C)C1 (single isomer, unassigned) [Compound 89]
IC50 [2]: 794 nM
